Key:
[1] = test system: Plasmopara viticola; assay: whole plant or invertebrate; assay type: in vivo; conditions: foliar, read-out: disease control
[2] = test system: Alternaria solani; assay: Alternaria solani / tomato / leaf disc (early blight); assay type: in vivo; conditions: 200 ppm; tomato leaf disks cv. Baby, inoculated 2 days after application; assessed 5-7 days after application vs untreated
Description: 6 Alternaria solani/Tomato/Leaf Disc (Early Blight) Tomato leaf disks cultivated variety (cv.) Baby were placed on agar in multiwell plates (24-well format) and sprayed with the formulated test compound diluted in water at an application rate of 200 ppm. The leaf disks were inoculated with a spore suspension of the fungus 2 days after application. The inoculated leaf disks were incubated at 23° C./21° C.

[3] = test system: Pythium ultimum; assay: Pythium ultimum / liquid culture (seedling damping off); assay type: cell-based; conditions: Globisporangium ultimum, potato dextrose broth, 24° C., inhibition of growth determined photometrically 2-3 days after application, read-out: disease control
Description: 8 Pythium ultimum/Liquid Culture (Seedling Damping Off) Mycelia fragments and oospores of a newly grown liquid culture of the fungus were directly mixed into nutrient broth (potato dextrose broth). After placing a DMSO solution of test compound into a 96-well format microtiter plate at an application rate of 200 ppm, the nutrient broth containing the fungal mycelia/spore mixture was added. The test plates were incubated at 24° C. and the inhibition of growth was determined photometrically 2-3 days after application.

[4] = test system: Botryotinia fuckeliana (Botrytis cinerea); assay: Botryotinia fuckeliana (Botrytis cinerea) / liquid culture (gray mould); assay type: cell-based; conditions: Vogels broth, 24° C., inhibition of growth determined photometrically 3-4 days after application, read-out: disease control
Description: (§1) 9 Botryotinia fuckeliana (Botrytis cinerea)/liquid culture (Gray mould): Conidia of the fungus from cryogenic storage were directly mixed into nutrient broth (Vogels broth). After placing a DMSO solution of test compound into a 96-well microtiter plate at an application rate of 200 ppm, the nutrient broth containing the fungal spores was added. The test plates were incubated at 24° C. and the inhibition of growth was determined photometrically 3-4 days after application.

[5] = test system: Glomerella lagenarium (Colletotrichum Lagenarium); assay: Glomerella lagenarium (Colletotrichum lagenarium) / liquid culture (anthracnose); assay type: cell-based; conditions: Colletotrichum orbiculare, PDB, 24° C., inhibition of growth measured photometrically 3-4 days after application, read-out: disease control
Description: as §1, with “10 Glomerella lagenarium (Colletotrichum Lagenarium)/Liquid Culture (Anthracnose):” for “9 Botryotinia fuckeliana (Botrytis cinerea)/liquid culture (Gray mould):”, “(PDB potato dextrose” for “(Vogels”, “measured” for “determined”

[6] = test system: Mycosphaerella arachidis (Cercospora arachidicola); assay: Mycosphaerella arachidis (Cercospora arachidicola) / liquid culture (early leaf spot); assay type: cell-based; conditions: PDB, 24° C., inhibition of growth determined photometrically 4-5 days after application, read-out: disease control
Description: as §1, with “11 Mycosphaerella arachidis (Cercospora arachidicola)/Liquid Culture (Early Leaf Spot):” for “9 Botryotinia fuckeliana (Botrytis cinerea)/liquid culture (Gray mould):”, “(PDB potato dextrose” for “(Vogels”, “4-5” for “3-4”

[7] = test system: Mycosphaerella graminicola (Septoria tritici); assay: Mycosphaerella graminicola (Septoria tritici) / liquid culture (Septoria blotch); assay type: cell-based; conditions: Zymoseptoria tritici, PDB, 24° C., inhibition of growth determined photometrically 4-5 days after application, read-out: disease control
Description: as §1, with “12 Mycosphaerella graminicola (Septoria tritici)/Liquid Culture (Septoria Blotch):” for “9 Botryotinia fuckeliana (Botrytis cinerea)/liquid culture (Gray mould):”, “(PDB potato dextrose” for “(Vogels”, “4-5” for “3-4”

[8] = test system: Gaeumannomyces Graminis; assay: Gaeumannomyces graminis / liquid culture (take-all of cereals); assay type: cell-based; conditions: PDB, 24° C., inhibition of growth determined photometrically 4-5 days after application, read-out: disease control
Description: 13 Gaeumannomyces Graminis/Liquid Culture (Take-all of Cereals): Mycelial fragments of the fungus from cryogenic storage were directly mixed into nutrient broth (PDB potato dextrose broth). […] The test plates were incubated at 24° C. and the inhibition of growth was determined photometrically 4-5 days after application.

[9] = test system: Monographella nivalis (Microdochium nivale); assay: Monographella nivalis (Microdochium nivale) / liquid culture (foot rot cereals); assay type: cell-based; conditions: PDB, 24° C., inhibition of growth determined photometrically 4-5 days after application, read-out: disease control
Description: as §1, with “14 Monographella nivalis (Microdochium nivale)/liquid” for “9 Botryotinia fuckeliana (Botrytis cinerea)/liquid”, “(foot rot cereals):” for “(Gray mould):”, “(PDB potato dextrose” for “(Vogels”, “4-5” for “3-4”

[10] = test system: Sclerotinia sclerotiorum; assay: Sclerotinia sclerotiorum / liquid culture (cottony rot); assay type: cell-based; conditions: PDB, 24° C., inhibition of growth determined visually 3-4 days after application, read-out: disease control
Description: 17 Sclerotinia sclerotiorum/liquid culture (cottony rot): Mycelia fragments of a newly grown liquid culture of the fungus were directly mixed into nutrient broth (PDB potato dextrose broth). After placing a (DMSO) solution of the test compounds into a microtiter plate (96-well format) the nutrient broth containing the fungal material was added. The test plates were incubated at 24° C. and the inhibition of growth was determined visually 3-4 days after application.

[11] = test system: Fusarium culmorum; assay: microbe, parasite or virus in culture; assay type: cell-based; conditions: read-out: disease control
[12] = test system: Thanatephorus cucumeris (Rhizoctonia solani); assay: Thanatephorus cucumeris (Rhizoctonia solani) / liquid culture (foot rot, damping-off); assay type: cell-based; conditions: PDB, 24° C., inhibition of growth determined photometrically 3-4 days after application, read-out: disease control
Description: 16 Thanatephorus cucumeris (Rhizoctonia solani)/liquid culture (foot rot, damping-off): Mycelia fragments of a newly grown liquid culture of the fungus were directly mixed into nutrient broth (PDB potato dextrose broth). After placing a DMSO solution of the test compounds into a 96-well microtiter plate at an application rate of 200 ppm, the nutrient broth containing the fungal material was added. The test plates were incubated at 24° C. and the inhibition of growth was determined photometrically 3-4 days after application.

[13] = test system: Pyrenophora teres; assay: Pyrenophora teres / barley / leaf disc preventative (net blotch); assay type: in vivo; conditions: 200 ppm; barley leaf segments cv Hasso, inoculated two days after application; assessed 5-7 days after application vs untreated
Description: 5 Pyrenophora teres/Barley/Leaf Disc Preventative (Net Blotch): Barley leaf segments cv Hasso were placed on agar in a 24-well plate and sprayed with formulated test compound diluted in water at an application rate of 200 ppm. The leaf segments were inoculated with a spore suspension of the fungus two days after application of the test solution. The inoculated leaf segments were incubated at 20° C. and 65% relative humidity under a light regime of 12/12 h (light/dark) in a climate cabinet and the activity of a compound was assessed as disease control compared to untreated when an appropriate level of disease damage appears in untreated check leaf segments (5-7 days after application).

Row | Structure (SMILES) | pest or weed control at 200 ppm [1] [%] | disease control [2] | inhibition of growth at 200 ppm [3] [%] | inhibition of growth at 200 ppm [4] [%] | inhibition of growth at 200 ppm [5] [%] | inhibition of growth at 200 ppm [6] [%] | inhibition of growth at 200 ppm [7] [%] | inhibition of growth at 200 ppm [8] [%] | inhibition of growth at 200 ppm [9] [%] | inhibition of growth at 200 ppm [10] [%] | melting point [°C] | inhibition of growth at 200 ppm [11] [%] | inhibition of growth at 200 ppm [12] [%] | disease control [13]
1 | OB1OCc2ccc(-c3ccccc3)cc21 [Compound 1, 1-hydroxy-6-phenyl-3H-2,1-benzoxaborole] | ≥ 80 | at least 80% | ≥ 80 | ≥ 80 | ≥ 80 | ≥ 80 | ≥ 80 | ≥ 80 | ≥ 80 | ≥ 80 | 140 to 150 | – | – | –
2 | OB1OCc2cc(Cl)c(-c3ccccc3)cc21 [Compound 3, 5-chloro-1-hydroxy-6-phenyl-3H-2,1-benzoxaborole] | ≥ 80 | – | ≥ 80 | ≥ 80 | ≥ 80 | ≥ 80 | ≥ 80 | ≥ 80 | ≥ 80 | ≥ 80 | 135 to 145 | ≥ 80 | ≥ 80 | –
3 | Cc1ccccc1-c1cc2c(cc1Cl)COB2O [Compound 4] | ≥ 80 | – | ≥ 80 | – | ≥ 80 | – | ≥ 80 | – | – | – | – | – | ≥ 80 | –
4 | Cc1cccc(-c2cc3c(cc2Cl)COB3O)c1 [Compound 5] | – | – | ≥ 80 | – | ≥ 80 | – | ≥ 80 | – | – | – | – | ≥ 80 | ≥ 80 | –
5 | Cc1ccc(-c2cc3c(cc2Cl)COB3O)cc1 [Compound 6] | – | – | ≥ 80 | – | ≥ 80 | – | ≥ 80 | – | – | – | – | ≥ 80 | ≥ 80 | –
6 | COc1ccccc1-c1cc2c(cc1Cl)COB2O [Compound 7, 5-chloro-1-hydroxy-6-(2-methoxyphenyl)-3H-2,1-benzoxaborole] | ≥ 80 | – | ≥ 80 | – | ≥ 80 | – | ≥ 80 | – | – | – | 90 to 105 | ≥ 80 | ≥ 80 | –
7 | COc1ccc(-c2cc3c(cc2Cl)COB3O)cc1 [Compound 8, 5-chloro-1-hydroxy-6-(4-methoxyphenyl)-3H-2,1-benzoxaborole] | – | – | ≥ 80 | – | ≥ 80 | – | ≥ 80 | ≥ 80 | ≥ 80 | – | 105 to 115 | – | ≥ 80 | –
8 | OB1OCc2cc(F)c(-c3ccc(F)cc3)cc21 [Compound 10] | ≥ 80 | – | ≥ 80 | ≥ 80 | ≥ 80 | ≥ 80 | ≥ 80 | ≥ 80 | ≥ 80 | ≥ 80 | 161 to 163 | ≥ 80 | – | at least 80%
9 | CC(=O)Nc1ccc(F)c(-c2cc3c(cc2Cl)COB3O)c1 [Compound 20, N-[3-(5-chloro-1-hydroxy-3H-2,1-benzoxaborol-6-yl)-4-fluoro-phenyl]acetamide] | – | – | ≥ 80 | ≥ 80 | ≥ 80 | ≥ 80 | ≥ 80 | ≥ 80 | ≥ 80 | ≥ 80 | – | ≥ 80 | – | –
10 | OB1OCc2cc(Cl)c(-c3cccc4[nH]c(-c5cscn5)nc34)cc21 [Compound 21] | – | – | ≥ 80 | ≥ 80 | – | ≥ 80 | – | – | – | – | – | – | – | –
11 | Cc1cc(C2CC2)nc(Nc2ccccc2-c2cc3c(cc2Cl)COB3O)n1 [Compound 22] | – | – | – | ≥ 80 | – | – | – | – | ≥ 80 | – | – | – | – | –
12 | COc1ccccc1-c1cc2c(cc1F)COB2O [Compound 25] | ≥ 80 | – | ≥ 80 | – | ≥ 80 | ≥ 80 | ≥ 80 | – | ≥ 80 | ≥ 80 | 50 to 65 | ≥ 80 | – | –
13 | COc1cccc(-c2cc3c(cc2F)COB3O)c1 [Compound 27, 5-fluoro-6-(3-methoxy-phenyl)-3H-benzo[c][1,2] oxaborol-1-ol] | ≥ 80 | – | ≥ 80 | – | ≥ 80 | ≥ 80 | ≥ 80 | – | ≥ 80 | ≥ 80 | 118 to 120 | ≥ 80 | – | –
14 | OB1OCc2cc(F)c(-c3ccc(Cl)cc3Cl)cc21 [Compound 28] | – | – | – | ≥ 80 | – | ≥ 80 | ≥ 80 | ≥ 80 | – | ≥ 80 | – | – | ≥ 80 | –
15 | COc1ccc(Cl)cc1-c1cc2c(cc1Cl)COB2O [Compound 31] | – | – | ≥ 80 | ≥ 80 | ≥ 80 | ≥ 80 | ≥ 80 | – | ≥ 80 | ≥ 80 | – | ≥ 80 | ≥ 80 | –

From patent US20180000089A1, “NOVEL MICROBIOCIDES” (Syngenta Participations AG, priority 2015, published 2018)
